Assays:
Bcl-XL [1] = biological target: T1, Bcl-XL (Homo sapiens (Human), UniProt Q07817); test: Bcl-2 protein family binding assay (Bcl2scan platform), Bcl-XL; details: BIM peptide ligand, 11-point dilution, read-out: Bc1-XL Kd (nm)
Protocol: (§1) E. coli were grown to log-phase and infected with T7 phage from a frozen stock (multiplicity of infection=0.4) and incubated with shaking at 32° C. until lysis (90-150 minutes). The lysates were centrifuged (5,000×g) and filtered (0.2 μm) to remove cell debris. […] The liganded beads were blocked with excess biotin and washed with blocking buffer (SeaBlock (Pierce), 1% BSA, 0.05% Tween 20, 1 mM DTT) to remove unbound ligand and to reduce non-specific phage binding. […] Test compounds were prepared as 100× stocks in 100% DMSO. Kds were determined using an 11-point 3-fold compound dilution series with one DMSO control point. […] The compounds were then diluted directly into the assays such that the final concentration of DMSO was 0.9%. All reactions performed in polypropylene 384-well plates. Each was a final volume of 0.02 ml. […] The BCL2 concentration in the eluates was measured by qPCR. Binding constants (Kds) were calculated with a standard dose-response curve using the Hill equation:
(§2) [formula] The Hill Slope was set to −1. Curves were fitted using a non-linear least square fit with the Levenberg-Marquardt algorithm.

RS4;11 cells = test: RS4;11 cell proliferation assay (CellTiter-Glo); format: cell-based; details: Homo sapiens, RS4-11, 48 h, read-out: RS4;11 (nM), CTG IC50
Protocol: Cell proliferation was measured using the CellTiter-Glo® Luminescent Cell Viability Assay. The assay involved the addition of a single reagent (CellTiter-Glo® Reagent) directly to cells cultured in serum-supplemented medium.
Each compound evaluated was prepared as a DMSO stock solution (10 mM). Compounds were tested in duplicate on each plate, with a 10-point serial dilution curve (1:3 dilution). Compound treatment (1.0 μL) was added from the compound dilution plate to the cell plate. The highest compound concentration was 10 μM (final), with a 0.1% final DMSO concentration. Plates were then incubated at 37° C., 5% CO2. After 48 h of compound treatment for RS4;11 or 72 h for NCI-H1963, cell plates were equilibrated at rt for approximately 30 mins. An equi-volume amount of CellTiter-Glo® Reagent (40 μL) was added to each well. […] Luminescence was recorded using a Envision plate reader according to CellTiter-Glo protocol. IC50 of each compound was calculated using GraphPad Prism by nonlinear regression analysis.

Bcl-2 [2] = biological target: T2, Bcl-2 (Homo sapiens (Human), UniProt P10415); test: Bcl-2 protein family binding assay (Bcl2scan platform), Bcl-2; details: BIM peptide ligand, 11-point dilution, read-out: Bc1-2 Kd (nm)
Protocol: as §1, §2

Bcl-2 [3] = biological target: T2, Bcl-2; test: Bcl-2 HTRF assay (FAM-Bak peptide); format: binding; details: HTRF, 4 nM Bcl-2, 100 nM FAM-Bak peptide; read-out: Bc1-2 IC50
Bcl-XL [4] = biological target: T1, Bcl-XL; test: Bcl-XL HTRF assay (FAM-Bad peptide); format: binding; details: HTRF, 3 nM Bcl-XL, 40 nM FAM-Bad peptide; read-out: Bc1-XL IC50

T2 sequence (P10415 whole entry): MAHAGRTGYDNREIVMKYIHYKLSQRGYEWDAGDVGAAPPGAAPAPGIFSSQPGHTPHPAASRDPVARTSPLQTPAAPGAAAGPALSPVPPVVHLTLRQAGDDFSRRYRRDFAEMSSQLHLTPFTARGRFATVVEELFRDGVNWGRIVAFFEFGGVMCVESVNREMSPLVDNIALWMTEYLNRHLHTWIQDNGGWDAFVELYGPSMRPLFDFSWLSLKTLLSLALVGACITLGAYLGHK
T1 sequence (Q07817 whole entry): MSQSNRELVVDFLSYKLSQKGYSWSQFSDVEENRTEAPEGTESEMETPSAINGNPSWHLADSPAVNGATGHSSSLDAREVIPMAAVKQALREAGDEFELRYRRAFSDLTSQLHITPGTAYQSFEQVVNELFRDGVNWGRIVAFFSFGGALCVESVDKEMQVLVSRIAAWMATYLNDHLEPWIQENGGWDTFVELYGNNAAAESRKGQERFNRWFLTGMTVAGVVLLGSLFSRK

Structure (SMILES)	Kd (Bcl-XL [1])	IC50 (RS4;11 cells)	Kd (Bcl-2 [2])	IC50 (Bcl-2 [3])	IC50 (Bcl-XL [4])
CCC12CC(C3=C(CN4CCN(c5ccc(C(=O)NS(=O)(=O)c6ccc(NC[C@H]7CC[C@](C)(O)CC7)c([N+](=O)[O-])c6)c(Oc6cnc7[nH]ccc7c6)c5)CC4)CCC(C)(C)C3)(C1)C2 [Example 27, 2-((1H-pyrrolo[2,3-b]pyridin-5-yl)oxy)-4-(4-((2-(3-ethylbicyclo[1.1.1]pentan-1-yl)-4,4-dimethylcyclohex-1-en-1-yl)methyl)piperazin-1-yl)-N-((4-((((1r,4r)-4-hydroxy-4-methylcyclohexyl)methyl)amino)-3-nitrophenyl)sulfonyl)benzamide]	> 100 nM	< 100 nM	< 10 nM	–	–
CC1(C)CCC(CN2CCN(c3ccc(C(=O)NS(=O)(=O)c4ccc(NCC5CCOCC5)c([N+](=O)[O-])c4)c(Oc4cnc5[nH]ccc5c4)c3)CC2)=C(C23CC(C(F)(F)F)(C2)C3)C1 [Example 28, 2-((1H-pyrrolo[2,3-b]pyridin-5-yl)oxy)-4-(4-((4,4-dimethyl-2-(3-(trifluoromethyl)bicyclo[1.1.1]pentan-1-yl)cyclohex-1-en-1-yl)methyl)piperazin-1-yl)-N-((3-nitro-4-(((tetrahydro-2H-pyran-4-yl)methyl)amino)phenyl)sulfonyl)benzamide]	> 100 nM	< 100 nM	< 10 nM	–	–
CC1(C)CCC(CN2CCN(c3ccc(C(=O)NS(=O)(=O)c4ccc(NCC5(F)CCOCC5)c([N+](=O)[O-])c4)c(Oc4cnc5[nH]ccc5c4)c3)CC2)=C(C23CC(C(F)(F)F)(C2)C3)C1 [Example 30, 2-((1H-pyrrolo[2,3-b]pyridin-5-yl)oxy)-4-(4-((4,4-dimethyl-2-(3-(trifluoromethyl)bicyclo[1.1.1]pentan-1-yl)cyclohex-1l-en-1-yl)methyl)piperazin-1-yl)-N-((4-(((4-fluorotetrahydro-2H-pyran-4-yl)methyl)amino)-3-nitrophenyl)sulfonyl)benzamide]	> 100 nM	< 100 nM	< 10 nM	–	–
CC1(C)CCC(CN2CCN(c3ccc(C(=O)NS(=O)(=O)c4ccc(OCC5(F)CCOCC5)c([N+](=O)[O-])c4)c(Oc4cnc5[nH]ccc5c4)c3)CC2)=C(C23CC(C(F)(F)F)(C2)C3)C1 [Example 31, 2-((1H-pyrrolo[2,3-b]pyridin-5-yl)oxy)-4-(4-((4,4-dimethyl-2-(3-(trifluoromethyl)bicyclo[1.1.1]pentan-1-yl)cyclohex-1-en-1-yl)methyl)piperazin-1-yl)-N-((4-((4-fluorotetrahydro-2H-pyran-4-yl)methoxy)-3-nitrophenyl)sulfonyl)benzamide]	> 100 nM	< 100 nM	< 10 nM	–	–
CC1(C)CCC(CN2CCN(c3ccc(C(=O)NS(=O)(=O)c4ccc(NC[C@H]5CC[C@](C)(O)CC5)c([N+](=O)[O-])c4)c(Oc4cnc5[nH]ccc5c4)c3)CC2)=C(C23CC(C(F)(F)F)(C2)C3)C1 [Example 32, 2-((1H-pyrrolo[2,3-b]pyridin-5-yl)oxy)-4-(4-((4,4-dimethyl-2-(3-(trifluoromethyl)bicyclo[1.1.1]pentan-1-yl)cyclohex-1-en-1-yl)methyl)piperazin-1-yl)-N-((4-((((1r,4r)-4-hydroxy-4-methylcyclohexyl)methyl)amino)-3-nitrophenyl)sulfonyl)benzamide]	> 100 nM	< 100 nM	< 10 nM	–	–
CC1(C)CCC(CN2CCN(c3ccc(C(=O)NS(=O)(=O)c4ccc(NCC5CCOCC5)c([N+](=O)[O-])c4)c(Oc4cnc5[nH]ccc5c4)c3)CC2)=C(C23CC(C(F)F)(C2)C3)C1 [Example 33, 2-((1H-pyrrolo[2,3-b]pyridin-5-yl)oxy)-4-(4-((2-(3-(difluoromethyl)bicyclo[1.1.1]pentan-1-yl)-4,4-dimethylcyclohex-1-en-1-yl)methyl)piperazin-1-yl)-N-((3-nitro-4-(((tetrahydro-2H-pyran-4-yl)methyl)amino)phenyl)sulfonyl)benzamide]	> 100 nM	< 100 nM	< 10 nM	–	–
CC1(C)CCC(CN2CCN(c3ccc(C(=O)NS(=O)(=O)c4ccc(NCC5(F)CCOCC5)c([N+](=O)[O-])c4)c(Oc4cnc5[nH]ccc5c4)c3)CC2)=C(C23CC(C(F)F)(C2)C3)C1 [Example 35, 2-((1H-pyrrolo[2,3-b]pyridin-5-yl)oxy)-4-(4-((2-(3-(difluoromethyl)bicyclo[1.1.1]pentan-1-yl)-4,4-dimethylcyclohex-1-en-1-yl)methyl)piperazin-1-yl)-N-((4-(((4-fluorotetrahydro-2H-pyran-4-yl)methyl)amino)-3-nitrophenyl)sulfonyl)benzamide]	> 100 nM	< 100 nM	< 10 nM	–	–
CC1(C)CCC(CN2CCN(c3ccc(C(=O)NS(=O)(=O)c4ccc(OCC5(F)CCOCC5)c([N+](=O)[O-])c4)c(Oc4cnc5[nH]ccc5c4)c3)CC2)=C(C23CC(C(F)F)(C2)C3)C1 [Example 36, 2-((1H-pyrrolo[2,3-b]pyridin-5-yl)oxy)-4-(4-((2-(3-(difluoromethyl)bicyclo[1.1.1]pentan-1-yl)-4,4-dimethylcyclohex-1-en-1-yl)methyl)piperazin-1-yl)-N-((4-((4-fluorotetrahydro-2H-pyran-4-yl)methoxy)-3-nitrophenyl)sulfonyl)benzamide]	10 to 100 nM	< 100 nM	< 10 nM	–	–
CN1CCC(F)(CNc2ccc(S(=O)(=O)NC(=O)c3ccc(N4CCN(CC5=C(C67CC(C(F)F)(C6)C7)CC(C)(C)CC5)CC4)cc3Oc3cnc4[nH]ccc4c3)cc2[N+](=O)[O-])CC1 [Example 38, 2-((1H-pyrrolo[2,3-b]pyridin-5-yl)oxy)-4-(4-((2-(3-(difluoromethyl)bicyclo[1.1.1]pentan-1-yl)-4,4-dimethylcyclohex-1-en-1-yl)methyl)piperazin-1-yl)-N-((4-(((4-fluoro-1-methylpiperidin-4-yl)methyl)amino)-3-nitrophenyl)sulfonyl)benzamide]	10 to 100 nM	< 100 nM	< 10 nM	–	–
CC(C)C12CC(C3=C(CN4CCN(c5ccc(C(=O)NS(=O)(=O)c6ccc(NCC7CCOCC7)c([N+](=O)[O-])c6)c(Oc6cnc7[nH]ccc7c6)c5)CC4)CCC(C)(C)C3)(C1)C2 [Example 39, 2-((1H-pyrrolo[2,3-b]pyridin-5-yl)oxy)-4-(4-((2-(3-isopropylbicyclo[0.1.1]pentan-1-yl)-4,4-dimethylcyclohex-1-en-1-yl)methyl)piperazin-1-yl)-N-((3-nitro-4-(((tetrahydro-2H-pyran-4-yl)methyl)amino)phenyl)sulfonyl)benzamide]	> 100 nM	< 100 nM	10 to 100 nM	–	–
CC1(C)CCC(CN2CCN(c3ccc(C(=O)NS(=O)(=O)c4ccc(NCC5CCOCC5)c([N+](=O)[O-])c4)c(Oc4cnc5[nH]ccc5c4)c3)CC2)=C(C23CC(C(C)(F)F)(C2)C3)C1 [Example 40, 2-(1H-pyrrolo[2,3-b]pyridin-5-yloxy)-4-(4-((2-(3-(1,1-difluoroethyl)bicyclo[1.1.1]pentan-1-yl)-4,4-dimethylcyclohex-1-enyl)methyl)piperazin-1-yl)-N-(3-nitro-4-((tetrahydro-2H-pyran-4-yl)methylamino)phenylsulfonyl)benzamide]	> 100 nM	< 100 nM	< 10 nM	–	–
CC1(C)CCC(C23CC(Cl)(C2)C3)=C(CN2CCN(c3ccc(C(=O)NS(=O)(=O)c4ccc(N[C@H](CCN5CCC(O)CC5)CSc5ccccc5)c(S(=O)(=O)C(F)(F)F)c4)cc3)CC2)C1 [Example 46]	–	100 to 1000 nM	–	≤ 10 nM	≤ 10 nM
CC1(C)CCC(C23CC(C)(C2)C3)=C(CN2CCN(c3ccc(C(=O)NS(=O)(=O)c4ccc(N[C@H](CCN5CCOCC5)CSc5ccccc5)c(S(=O)(=O)C(F)(F)F)c4)cc3)CC2)C1 [Example 47, (R)-4-(4-((5,5-Dimethyl-2-(3-methylbicyclo[1.1.1]pentan-1-yl)cyclohex-1-enyl)methyl)piperazin-1-yl)-N-(4-(4-morpholino-1-(phenylthio)butan-2-ylamino)-3-(trifluoromethylsulfonyl)phenylsulfonyl)benzamide]	10 to 100 nM	> 1000 nM	> 100 nM	–	–

From patent US11318134B2, “Benzamide compounds” (priority 2018, dated 2022)
